“Also recorded” adds a separate entry of the source. Values belong to the compound of their own block, whether it stands above or below them.
How the values were obtained:
[1] = target: T1, rat liver squalene synthase (Rattus norvegicus, UniProt Q02769); details: cited from earlier work
T1 construct: host or cells: rat liver
T1 sequence (Q02769 1-416): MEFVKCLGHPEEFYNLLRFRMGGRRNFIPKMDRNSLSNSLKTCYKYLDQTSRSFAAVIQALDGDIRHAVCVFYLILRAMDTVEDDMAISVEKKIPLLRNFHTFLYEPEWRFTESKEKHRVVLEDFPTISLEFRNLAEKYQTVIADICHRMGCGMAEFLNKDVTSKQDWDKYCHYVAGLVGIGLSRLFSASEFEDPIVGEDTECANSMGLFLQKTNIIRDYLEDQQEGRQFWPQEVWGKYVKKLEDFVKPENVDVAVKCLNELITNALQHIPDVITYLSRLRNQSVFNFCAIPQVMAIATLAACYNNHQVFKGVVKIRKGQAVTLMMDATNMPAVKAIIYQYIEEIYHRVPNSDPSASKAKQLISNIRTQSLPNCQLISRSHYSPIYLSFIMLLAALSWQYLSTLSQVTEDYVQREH

[2] = system: protein prenylation in osteoclasts; test: cells; details: Mus musculus, Osteoclast, read-out: IC50, labeling of prenylated proteins, osteoclasts, 15 μM lovastatin, 2 hours pretreatment, 3 hours of labeling
[3] = system: mevalonate-derived non-saponifiable lipids in osteoclasts; test: cells; details: Mus musculus, Osteoclast, read-out: IC50, incorporation of label from MVL into non-saponifiable lipids, osteoclasts, 2 hours pretreatment, 3 hours of labeling
[4] = system: mevalonate-derived non-saponifiable lipids in osteoclasts; details: alendronate 0-60 μM
[5] = target: Farnesyl protein transferase (FTase) (Homo sapiens, UniProt P49354+P49356)
[6] = system: protein prenylation in osteoclasts; details: at 60 μM
[7] = target: geranylgeranyl protein transferase I (GGTase I) (Homo sapiens, UniProt P49354+P53609)
[8] = target: T2, human recombinant farnesyl diphosphate synthase (Homo sapiens, UniProt P14324)
T2 sequence (P14324 67-419 limits assumed): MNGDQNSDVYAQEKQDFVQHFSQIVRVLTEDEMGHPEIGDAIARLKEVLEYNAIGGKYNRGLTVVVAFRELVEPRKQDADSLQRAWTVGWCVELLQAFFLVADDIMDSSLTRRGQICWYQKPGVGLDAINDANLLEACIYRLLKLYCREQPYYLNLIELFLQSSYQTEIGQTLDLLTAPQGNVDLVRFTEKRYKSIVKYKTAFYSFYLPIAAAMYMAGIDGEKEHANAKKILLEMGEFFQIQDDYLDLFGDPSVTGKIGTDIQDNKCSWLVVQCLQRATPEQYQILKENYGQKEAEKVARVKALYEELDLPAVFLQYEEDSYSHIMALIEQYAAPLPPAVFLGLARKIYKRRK

osteoclasts in culture = details: cited from earlier work
[9] = target: geranylgeranyl protein transferase II (GGTase II) (Homo sapiens, UniProt P53611+Q92696)
sterol synthesis = details: read-out: IC50, block of sterol synthesis; incorporation of 14C-MVA into sterol, rat liver cell-free system; cited from earlier work
[10] = target: T2, human recombinant farnesyl diphosphate synthase; test: biochemical

geranylgeranyl protein transferase II (GGTase II), sequence (Q92696 whole entry): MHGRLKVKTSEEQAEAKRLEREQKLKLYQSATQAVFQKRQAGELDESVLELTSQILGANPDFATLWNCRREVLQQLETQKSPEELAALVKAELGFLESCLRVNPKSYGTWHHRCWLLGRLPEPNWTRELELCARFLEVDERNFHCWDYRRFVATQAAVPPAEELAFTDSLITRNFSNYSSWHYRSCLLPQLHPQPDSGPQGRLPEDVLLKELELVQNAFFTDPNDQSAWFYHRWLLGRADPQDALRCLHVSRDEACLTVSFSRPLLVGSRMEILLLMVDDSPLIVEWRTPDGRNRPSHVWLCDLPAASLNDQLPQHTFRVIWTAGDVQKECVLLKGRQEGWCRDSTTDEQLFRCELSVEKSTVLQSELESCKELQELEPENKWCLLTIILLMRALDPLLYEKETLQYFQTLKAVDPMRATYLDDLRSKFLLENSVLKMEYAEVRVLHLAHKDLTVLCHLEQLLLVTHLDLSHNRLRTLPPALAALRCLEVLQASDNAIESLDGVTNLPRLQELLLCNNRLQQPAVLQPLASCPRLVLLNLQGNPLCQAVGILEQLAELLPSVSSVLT
geranylgeranyl protein transferase II (GGTase II), sequence (P53611 whole entry): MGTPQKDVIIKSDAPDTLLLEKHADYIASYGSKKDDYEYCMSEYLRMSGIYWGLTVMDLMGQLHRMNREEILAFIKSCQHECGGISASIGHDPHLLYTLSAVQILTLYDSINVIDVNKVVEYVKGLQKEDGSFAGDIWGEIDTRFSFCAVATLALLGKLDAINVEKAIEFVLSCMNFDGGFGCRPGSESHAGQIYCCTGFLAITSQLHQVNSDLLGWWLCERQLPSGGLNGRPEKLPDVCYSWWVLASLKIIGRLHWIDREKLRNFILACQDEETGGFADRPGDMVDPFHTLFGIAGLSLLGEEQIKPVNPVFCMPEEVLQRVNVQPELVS

SMILES: O=P(O)(O)C(O)(CCN1CCCC1)P(=O)(O)O [EB 1053, 1-hydroxy-3-(1-pyrrolidinyl)-propylidene-1,1-bisphosphonic acid]
- inhibition of squalene synthase (in words) [1]: potent, nanomolar inhibitors

SMILES: O=P(O)(O)C(NC1CCCCCC1)P(=O)(O)O [YM 175, Cycloheptylaminomethylene-1,1-bisphosphonic acid]
- inhibition of squalene synthase (in words) [1]: potent, nanomolar inhibitors

- IC50 [2]: ~15 µM
- IC50 [3]: ~15 µM
- inhibition of FTase (in words) [5]: not inhibited
- inhibition of GGTase I (in words) [7]: not inhibited
- inhibition of FPP synthase (in words) [8]: effectively inhibit
- inhibition of GGTase II (in words) [9]: not inhibited
SMILES: NCCCC(O)(P(=O)(O)O)P(=O)(O)O [alendronate, 4-amino-1-hydroxybutylidene-1,1-bisphosphonic acid monosodium trihydrate]
- inhibition of squalene synthase (in words) [1]: comparatively little effect
- lowering of incorporation of label from MVL into non-saponifiable lipids [4]: up to 80%
- labeling of prenylated proteins (in words) [6]: essentially disappears
- osteoclast formation and bone resorption (in words) (osteoclasts in culture): inhibited
- IC50 (sterol synthesis): 0.168 µM

SMILES: O=P(O)(O)C(Cl)(Cl)P(=O)(O)O [clodronate, 1,1-dichloromethylene-1,1-diphosphonic acid]
- inhibition of FPP synthase (in words) [8]: no inhibition observed; also recorded: little or no effect

- IC50 [10]: 80 µM
- inhibition of FPP synthase (in words) [8]: little or no effect
SMILES: CC(O)(P(=O)(O)O)P(=O)(O)O [etidronate, 1-hydroxyethane-1,1-diphosphonic acid]

SMILES: CC[C@H](C)C(=O)O[C@H]1C[C@@H](C)C=C2C=C[C@H](C)[C@H](CC[C@@H]3C[C@@H](O)CC(=O)O3)[C@H]21 [lovastatin]
- osteoclast formation and bone resorption (in words) (osteoclasts in culture): inhibited

SMILES: NCCC(O)(P(=O)(O)O)P(=O)(O)O [pamidronate, 3-amino-1-hydroxypropylidene-1,1-bisphosphonic acid]
- inhibition of squalene synthase (in words) [1]: comparatively little effect
- inhibition of FPP synthase (in words) [8]: effectively inhibit
- IC50 (sterol synthesis): 0.42 µM

— patent US20020151459A1, “Methods for identifying compounds useful for inhibiting farnesyl diphosphate synthase” (Merck & Co., Inc., priority 2000, published 2002)
